For experiment [1], the target named is T1, human Cereblon WT GST-tagged protein (CRBN) (Homo sapiens, UniProt Q96SW2).
T1 construct: purchased CISBIO 64BDCRBNPEH
Nature of the experiment: CRBN binding by HTRF (Cereblon binding kit). The method, then:
The CEREBLON BINDING kits (specification: 10,000 tests; product number: Catalog #64BDCRBNPEH; CISBIO company) was used to determine the CRBN binding ability of the compounds to be tested through a HTRF method (homogeneous time-resolved fluorescence). The specific methods are as follows: • 1. According to the instructions of the CEREBLON BINDING KITS, serial dilutions were performed for the test compounds of the present disclosure (including the compounds in Table 1, Table 2, and Examples 1-468) and for lenalidomide. Specifically, diluent #9 (1×) solution was used as the diluent, and multiple concentration gradients were set. The dilution operation can be performed according to one of the following two methods: • (1) The first dilution method: The test compounds of the present disclosure (including the compounds in Table 1, Table 2, and Examples 1-468) were subjected to 5-fold serial dilutions starting from a highest concentration of 40 μM, resulting in a total of 7 concentrations from high to low (40, 8, 1.6, 0.32, 0.064, 0.0128, 0.00256 μM). Subsequently, the diluted test compounds and corresponding detection reagents were added to each well of a 96-well plate, resulting in final test compound concentrations of 10, 2, 0.4, 0.08, 0.016, 0.0032, and 0.00064 μM, respectively. • (2) As an alternative, a second dilution method can be used: The test compounds of the present disclosure (including the compounds in Table 1, Table 2, and Examples 1-468) were subjected to 4-fold gradient dilutions starting from a highest concentration of 8 μM, resulting in 2 concentrations (8 μM, 2 μM). Into the 96-well plate, the diluted test compounds and corresponding detection reagents were added, resulting in final test compound concentrations of 2 μM and 0.5 μM, respectively. The experimental procedure is described below using the diluted 8 μM test compound and lenalidomide solutions as examples. • 2. 2.5 μL of the above 8 μM of the tested compounds and lenalidomide solution, as well as the same volume of diluent #9 (1×) solution (solvent control group, Std0) were added to each well of a 96-well plate, respectively. Then, 2.5 μL of human Cereblon WT GST-tagged protein solution was added to each well. Finally, 5 μL of the thoroughly mixed Thalidomide-Re reagent and GST Eu antibody working solution were added to each of the aforementioned wells. The final concentration of the tested compounds and lenalidomide in each well was 2 μM. • 3. The blank control wells were sequentially added with 2.5 μL of diluent #9 (1×) solution, 2.5 μL of PROTAC binding buffer, and 5 μL of thoroughly mixed Thalidomide-Re reagent and GST Eu antibody working solution. • 4. After sealing and incubating the solutions in the aforementioned wells at room temperature for 3 hours, the absorbance values at emission wavelengths of 620 nm and 665 nm were detected by the HTRF method using a Spark microplate reader (V3.1 SP1).
The corresponding CRBN binding inhibition rate was calculated using the following method:
Rcompound=OD 665 nmcompound/OD 620 nmcompound−OD 665 nmcontrol/OD 620 nmcontrol
RStd0=OD 665 nmStd0/OD 620 nmStd0−OD 665 nmcontrol/OD 620 nmcontrol inhibition rate (%)=(1−Rcompound/RStd0)*100
Note: OD 665 nmcompound is the absorbance value of each well of the compounds to be tested of the present disclosure at an emission wavelength of 665 nm. OD 620 nmcompound is the absorbance value of each well of the compounds to be tested of the present disclosure at an emission wavelength of 620 nm. OD 665 nmcontrol is the absorbance value of the blank control well at an emission wavelength of 665 nm. OD 620 nmcontrol is the absorbance value of the blank control well at an emission wavelength of 620 nm. OD 665 nmStd0 is the absorbance value of the solvent control well at an emission wavelength of 665 nm. OD 620 nmStd0 is the absorbance value of the solvent control well at an emission wavelength of 620 nm.
For orientation: In TR-FRET formats the signal depends on donor and acceptor labels being close together.

In the next experiment the target is T2, IRAK4 (Homo sapiens, UniProt Q9NWZ3).
T2 construct: expression of target proteins in cells; endogenous in cells
T2 sequence (Q9NWZ3 1-460): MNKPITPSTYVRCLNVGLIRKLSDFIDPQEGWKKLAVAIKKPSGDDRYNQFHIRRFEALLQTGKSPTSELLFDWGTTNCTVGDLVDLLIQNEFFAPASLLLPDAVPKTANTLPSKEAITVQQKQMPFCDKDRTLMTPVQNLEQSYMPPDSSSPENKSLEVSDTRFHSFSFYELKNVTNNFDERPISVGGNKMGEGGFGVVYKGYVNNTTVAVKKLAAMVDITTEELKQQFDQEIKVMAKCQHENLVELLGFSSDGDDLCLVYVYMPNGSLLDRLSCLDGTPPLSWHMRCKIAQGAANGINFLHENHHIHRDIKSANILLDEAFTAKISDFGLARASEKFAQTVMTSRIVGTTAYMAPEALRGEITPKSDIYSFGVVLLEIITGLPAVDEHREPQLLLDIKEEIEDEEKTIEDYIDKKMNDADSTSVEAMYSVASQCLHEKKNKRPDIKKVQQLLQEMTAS
Nature of the experiment: Western blot degradation of IRAK4. Type of experiment: cell-based. To be noted: hPBMC Cell; 24 hours. The method in brief: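 Immunoblot of drug-treated versus DMSO-treated cell lysates, with densitometric quantification. Values: DC50 (50% band loss, fitted) and loading-control-normalised % remaining or degradation.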
For orientation: Immunoblotting shows a protein as a band on a membrane.

Experiment [2] relates to Human Acute T Lymphoblastic Leukemia Cells (Molt-4). The experiment can be described thus: Inhibition of Molt-4 cell proliferation (CellTiter luminescent viability). The class given is cell-based. To be noted: Homo sapiens, MOLT-4, 96 h, Table IA2, IRAK4 inhibitor-based, 96 hours; for inhibition at 0.01 µM: Molt-4, 10 nM, read-out: Inhibition Rate at 10 nM (%); for inhibition at 0.5 µM: Molt-4, 500 nM, read-out: Inhibition Rate at 500 nM (%). The method, then:
The tumor cells used herein were cultured in a cell culture medium listed in table 3 at 37 °C in an incubator with 5% CO2. Prior to experimentation, all cell lines used were correctly identified by STR profiling, and tested negative for mycoplasma contamination using a mycoplasma detection kit through routine screenings.
The IC50 values of the compounds of the present disclosure (including the compounds in Table 1, Table 2, and Examples 1-468) were determined using the CellTiter-Meiluncell Luminescent Cell Viability Assay Kit from Dalian Meilun Biotech Co., Ltd. The detailed procedure is as follows: Tumor cells were seeded in 96-well cell culture plates at the densities specified in Table 4. On the following day, the test compounds of the present disclosure were subjected to serial dilution. The dilution can be performed according to one of the following two methods: • (1) The first dilution method: The test compounds of the present disclosure (including the compounds in Table 1, Table 2, and Examples 1-468) were subjected to 5-fold serial dilutions starting from a highest concentration of 2000 μM, resulting in a total of 9 concentrations from high to low (2000, 400, 80, 16, 3.2, 0.64, 0.128, 0.0256, 0.00512 μM). Subsequently, 0.5 μL of the test compound dilution was transferred into the 96-well plate containing the cells, with each well containing 100 μL of cell culture medium. […] Into the 96-well plate, the diluted test compounds and corresponding detection reagents were added, resulting in final test compound concentrations of 500 nM and 10 nM, respectively. The experimental procedure is described below using the diluted 2 μM test compound as an example.
0.5 μL of the aforementioned diluted compound of the present disclosure (including the compounds in Table 1, Table 2, and Examples 1-468) was added to the seeded cells in 100 μL of medium, yielding a final test compound concentration of 10 nM. After the cells were treated with the compounds of the present disclosure for a specified period, the cell viability assay reagent was added to the culture medium according to the kit's instructions to determine cell viability. […] All controls were treated using the same procedure as the compounds of the present disclosure. The growth inhibition curves for the compounds of the present disclosure were plotted using Prism GraphPad software, and the IC50 values were calculated therefrom.

T1 sequence (Q96SW2 whole entry): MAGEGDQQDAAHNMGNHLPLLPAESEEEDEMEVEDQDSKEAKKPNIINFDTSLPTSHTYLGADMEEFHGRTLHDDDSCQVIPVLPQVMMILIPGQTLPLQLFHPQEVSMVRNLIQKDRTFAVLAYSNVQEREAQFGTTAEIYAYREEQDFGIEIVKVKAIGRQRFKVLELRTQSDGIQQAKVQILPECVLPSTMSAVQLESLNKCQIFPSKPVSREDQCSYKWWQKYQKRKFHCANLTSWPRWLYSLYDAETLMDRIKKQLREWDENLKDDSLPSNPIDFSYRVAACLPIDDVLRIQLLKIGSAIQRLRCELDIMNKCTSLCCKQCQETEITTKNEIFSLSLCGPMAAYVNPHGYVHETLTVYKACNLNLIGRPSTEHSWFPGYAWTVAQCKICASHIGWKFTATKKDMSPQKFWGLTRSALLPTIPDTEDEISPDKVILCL

For `CN(C)C(=O)c1cc2cnc(Nc3ccc(N4CCC(CN5CC6CC(C5)N6c5ccc6c(c5)C(=O)N(N5CCC(=O)NC5=O)C6=O)CC4)cn3)nc2n1C1CCCC1` [GT-05201, 7-cyclopentyl-2-((5-(4-((6-(2-(2,4-dioxotetrahydropyrimidin-1(2H)-yl)-1,3-dioxoisoindolin-5-yl)-3,6-diazabicyclo[3.1.1]heptan-3-yl)methyl)piperidin-1-yl)pyridin-2-yl)amino)-N,N-dimethyl-7H-pyrrolo[2,3-d]pyrimidine-6-carboxamide], the “Inhibition Rate at 0.5 μM (%)” value in experiment [1] (0.5 μM) is “a3 (30% < a3 ≤ 40%)”. Also, the “Inhibition Rate at 2 μM (%)” value in experiment [1] (2 μM) was “a5 (53% < a5 ≤ 60%)”.

In the case of `CN(Cc1ccc(-c2[nH]c3cc(F)cc4c3c2CCNC4=O)cc1)Cc1ccc2c(c1)CN(N1CCC(=O)NC1=O)C2=O` [GT-08403, 1-(5-(((4-(8-fluoro-1-oxo-2,3,4,6-tetrahydro-1H-azepino[5,4,3-cd]indol-5-yl)benzyl)(methyl)amino)methyl)-1-oxoisoindolin-2-yl)dihydropyrimidine-2,4(1H,3H)-dione], in experiment [1] (0.5 μM, read-out: Inhibition Rate at 0.5 μM (%)), the inhibition (commonly the change of the read-out against control, counted positive when it falls) at 0.5 µM lay within 20 to 30%. Also, in experiment [1] (2 μM, read-out: Inhibition Rate at 2 μM (%)), the inhibition at 2 µM is 53 to 60%.

For the compound `COc1cc2nn([C@H]3CC[C@H](CN4C[C@@H]5C[C@H]4CN5c4ccc5c(c4)C(=O)N(N4CCC(=O)NC4=O)C5=O)CC3)cc2cc1NC(=O)c1cccc(C(F)(F)F)n1` [GT-08648, N-(2-((1S,4r)-4-(((1S,4S)-5-(2-(2,4-dioxotetrahydropyrimidin-1(2H)-yl)-1,3-dioxoisoindolin-5-yl)-2,5-diazabicyclo[2.2.1]heptan-2-yl)methyl)cyclohexyl)-6-methoxy-2H-indazol-5-yl)-6-(trifluoromethyl) picolinamide], the “Degradation of substrate protein IRAK4 (substrate protein remaining %)” value (“Degradation … (substrate protein remaining %)” for short) at IRAK4 is listed as “A (0%≤substrate protein remaining %≤80%)”. Moreover, in experiment [2], the inhibition at 0.01 µM is 15 to 20% and the inhibition at 0.5 µM lay within 15 to 20%.

Take `COc1cc2nn([C@H]3CC[C@H](CN4C[C@H]5C[C@@H]4CN5c4ccc5c(c4)C(=O)N(N4CCC(=O)NC4=O)C5=O)CC3)cc2cc1NC(=O)c1cccc(C(F)(F)F)n1` [GT-08650, N-(2-((1R,4r)-4-(((1R,4R)-5-(2-(2,4-dioxotetrahydropyrimidin-1(2H)-yl)-1,3-dioxoisoindolin-5-yl)-2,5-diazabicyclo[2.2.1]heptan-2-yl)methyl)cyclohexyl)-6-methoxy-2H-indazol-5-yl)-6-(trifluoromethyl) picolinamide]: at IRAK4, the “Degradation … (substrate protein remaining %)” value is given as “A (0%≤substrate protein remaining %≤80%)”. Further, in experiment [2], the inhibition at 0.01 µM lay within 20 to 40% and the inhibition at 0.5 µM was 15 to 20%.

`COc1cc2nn([C@H]3CC[C@H](CN4CCN(c5cc6c(cc5F)C(=O)N(N5CCC(=O)NC5=O)C6=O)CC4)CC3)cc2cc1NC(=O)c1cccc(C(F)(F)F)n1` [GT-08651, N-(2-((1r,4r)-4-((4-(2-(2,4-dioxotetrahydropyrimidin-1(2H)-yl)-6-fluoro-1,3-dioxoisoindolin-5-yl)piperazin-1-yl)methyl)cyclohexyl)-6-methoxy-2H-indazol-5-yl)-6-(trifluoromethyl) picolinamide]: the “Degradation … (substrate protein remaining %)” value at IRAK4 was “A (0%≤substrate protein remaining %≤80%)”. In addition, in experiment [2], the inhibition at 0.01 µM fell in the range of 15 to 20% and the inhibition at 0.5 µM was 10 to 15%.

In the case of `COc1cc2nn([C@H]3CC[C@H](CN4CC5CCC(C4)N5c4ccc5c(c4)C(=O)N(N4CCC(=O)NC4=O)C5=O)CC3)cc2cc1NC(=O)c1cccc(C(F)(F)F)n1` [GT-08652, N-(2-((1r,4r)-4-((8-(2-(2,4-dioxotetrahydropyrimidin-1(2H)-yl)-1,3-dioxoisoindolin-5-yl)-3,8-diazabicyclo[3.2.1]octan-3-yl)methyl)cyclohexyl)-6-methoxy-2H-indazol-5-yl)-6-(trifluoromethyl) picolinamide], the “Degradation … (substrate protein remaining %)” value on IRAK4 is “A (0%≤substrate protein remaining %≤80%)”. Also, in experiment [2], the inhibition at 0.01 µM lay within 15 to 20% and the inhibition at 0.5 µM lay in the range of 15 to 20%.

On to `COc1cc2nn([C@H]3CC[C@H](CN4CCN(c5cc6c(cc5F)C(=O)N(N5CCC(=O)NC5=O)C6=O)CC4)CC3)cc2cc1NC(=O)c1cccc(C(F)(F)F)c1` [GT-08664, N-(2-((1r,4r)-4-((4-(2-(2,4-dioxotetrahydropyrimidin-1(2H)-yl)-6-fluoro-1,3-dioxoisoindolin-5-yl)piperazin-1-yl)methyl)cyclohexyl)-6-methoxy-2H-indazol-5-yl)-3-(trifluoromethyl)benzamide], for which the “Degradation … (substrate protein remaining %)” value on IRAK4 is on record as “A (0%≤substrate protein remaining %≤80%)”. Also, in experiment [2], the inhibition at 0.01 µM lay within 20 to 40% and the inhibition at 0.5 µM lay within 15 to 20%.

For the origin of these results see patent US20260364184A1, “COMPOUND BASED ON OXOISOINDOLINYL-SUBSTITUTED TETRAHYDROPYRIMIDINE-DIONE AND USE THEREOF” (GLUETACS THERAPEUTICS (SHANGHAI) CO., LTD., priority 2023, published 2026).
